Test results from publication PMC3532212 (PLoS ONE, 2012).

How the values were obtained:
[1] = system: conscious, telemetry-instrumented rats; assay: Telemetry-instrumented conscious rats, single oral dose hemodynamics; type: in vivo; details: conscious rat, BAF312 0.3, 3.0, 30 mg/kg single oral dose
Procedure: (§1) Mean arterial pressure was assessed in conscious, freely moving male Sprague Dawley rats (n = 6–8/group; Charles River) instrumented with telemetry transmitters (DSI-Ponemah) and housed in metabolism cages as previously described, [26]. Tested compounds were solubilized in a 0.5% Methylcellulose/0.015% Tween 80 vehicle that was also dosed alone (p.o./QD, 5 mL/kg) as a control in the study. FTY720 was administered p.o. at 0.3, 1.0, 3.0, 10.0 mg/kg p.o. as a single dose or p.o./QD at 0.5, 1.5, and 5.0 mg/kg in a chronic study. BAF312 was administered p.o/QD at 0.3, 3.0, and 30 mg/kg as a single dose and in a chronic study. Mean arterial pressure and heart rate are shown as 1-hr and/or 24-hr mean values±SEM as described in the results. Blood samples in satellite rats were withdrawn at various timepoints as described in the results for analysis of plasma concentrations of the parent compound and, in the case of FTY720, also the phosphorylated metabolite, (S)-FTY720-P. Statistical analysis for the single-dose acute studies was based on one-way ANOVA to compare the treatment groups vs. vehicle for each time period after dosing (0–24 hrs, 24–48 hrs, and 48–72 hrs); statistical significance (p<0.05) was detected by Dunnett’s post-hoc test to compare treatment with vehicle controls. The statistical analysis in the chronic studies were based on one-way ANOVA with repeated measures to compare the treatment arms; statistical significance (p<0.05) was detected by Dunnett’s post-hoc test to compare treatment with vehicle controls.

[2] = Plasma concentrations during escalating i.v. infusion in anesthetized rats; type: in vivo; details: male, Sprague Dawley, plasma, iv, anesthetized rat, BAF312 i.v.
Procedure: The cardiovascular effects of FTY720 and BAF312 were tested in anesthetized rats (180–200 g). In brief, male Sprague Dawley rats (Charles River) were anesthetized with Inactin (110 mg/kg i.p.) and a tracheotomy performed. The femoral artery and veins were catheterized for measurement of mean arterial pressure and heart rate, collection of blood samples at 20-min intervals (0.2 mL/sample), and for compound infusion/hydration as previously described, [24]; blood samples were also withdrawn in vehicle-treated control rats. FTY720, infused as a hydrochloride salt (0.1, 0.3, 1.0 mg/kg/20-min free base equivalent solubilized in a 100% PEG-400 vehicle), or BAF312 (0.5, 1.5, 5.0 mg/kg/20-min solubilized in a 100% PEG-400 vehicle) were administered via three escalating 20-min infusions (0.011 mL/min) followed by a 1-hr post-treatment period. A blood sample was withdrawn at 20, 40, 60, and 120-minutes for analysis of plasma concentrations of the parent compound, and in the case of FTY720, also the phosphorylated metabolite, (S)-FTY720-P. Statistical significance (p<0.05) was based on a t-test comparing treatment change from baseline (baseline was defined as the period from −30 to 0 minutes) vs. vehicle controls change from baseline at each timepoint without adjustment for multiple comparisons. In a separate group of anesthetized rats in which left ventricular (LV) contractility was also recorded with a Millar pressure transducer introduced into the left ventricle, BAF312 was infused in the same dosing regimen as the studies described above (0.5, 1.5, 5.0 mg/kg/20-min solubilized in a 100% PEG-400 vehicle) and effects on LV dP/dtmax were recorded.

[3] = Plasma concentrations in repeat-dosing study, satellite rats; type: in vivo, rat; details: for concentration at 4 h / concentration at 8 h / concentration at 24 h: male, Sprague Dawley, rat, plasma, po, mean±SEM; for Plasma concentration at Tmax (4 hrs) / Terminal plasma concentration at Tmax: satellite rats; for Plasma concentration at Tmax (4 hrs): day 1; for Terminal plasma concentration at Tmax: last day of study
Procedure: as §1

human S1P4 = target: T1, human S1P4 (Homo sapiens, UniProt O95977); assay: B arrestin recruitment assay, Tango EDG6-bla U2OS cells; type: cell-based
T1 construct: host or cells: U2OS (Tango EDG6-bla)
T1 sequence (O95977 1-384): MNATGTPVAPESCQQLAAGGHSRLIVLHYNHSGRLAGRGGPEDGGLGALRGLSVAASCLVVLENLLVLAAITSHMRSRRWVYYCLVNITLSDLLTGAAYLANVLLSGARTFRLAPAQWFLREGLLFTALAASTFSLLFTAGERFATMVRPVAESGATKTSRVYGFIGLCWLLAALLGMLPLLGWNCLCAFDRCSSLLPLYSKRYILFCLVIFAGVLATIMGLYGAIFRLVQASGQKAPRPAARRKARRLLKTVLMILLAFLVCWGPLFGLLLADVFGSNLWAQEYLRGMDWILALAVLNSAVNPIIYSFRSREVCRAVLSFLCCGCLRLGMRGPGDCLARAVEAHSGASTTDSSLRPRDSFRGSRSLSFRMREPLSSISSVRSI
Procedure: Tango™ EDG1-bla U2OS cells (Human S1P1), Tango™ EDG3-bla U2OS cells (human S1P3), Tango™ EDG6-bla U2OS cells (human S1P4) and Tango™ EDG8-bla U2OS cells (human S1P5) cell lines were cultured and assayed according to manufacturers instructions with one modification; agonists incubated on the cells for 18 hours prior to addition of the GenBlazer substrate. Final DMSO concentration in the assay is 1%.

concentration at 20 min ([2]; end of 0.5 mg/kg/20 min infusion): 1430 ± 707 nM | concentration at 40 min ([2]; end of 1.5 mg/kg/20 min infusion): 3220 ± 210 nM | concentration at 60 min ([2]; end of 5.0 mg/kg/20 min infusion): 7250 ± 517 nM | concentration at 120 min ([2]; end of 60-min post-treatment period): 2820 ± 276 nM | concentration at 4 h ([3]; 0.3 mg/kg/day, BAF312 0.3 mg/kg/d p.o., Terminal (last day), 4 hr post-dose): 81 ± 8 nM | concentration at 8 h ([3]; 0.3 mg/kg/day, BAF312 0.3 mg/kg/d p.o., Terminal (last day), 8 hr post-dose): 54 ± 7 nM | concentration at 24 h ([3]; 0.3 mg/kg/day, BAF312 0.3 mg/kg/d p.o., Terminal (last day), 24 hr post-dose): 13 ± 6 nM | concentration at 4 h ([3]; 0.3 mg/kg/day, BAF312 0.3 mg/kg/d p.o., Day 1, 4 hr post-dose): 91 ± 7 nM | concentration at 8 h ([3]; 0.3 mg/kg/day, BAF312 0.3 mg/kg/d p.o., Day 1, 8 hr post-dose): 65 ± 8 nM | concentration at 24 h ([3]; 0.3 mg/kg/day, BAF312 0.3 mg/kg/d p.o., Day 1, 24 hr post-dose): 0 nM | concentration at 4 h ([3]; 3 mg/kg/day, BAF312 3.0 mg/kg/d p.o., Terminal (last day), 4 hr post-dose): 735 ± 73 nM | concentration at 8 h ([3]; 3 mg/kg/day, BAF312 3.0 mg/kg/d p.o., Terminal (last day), 8 hr post-dose): 480 ± 33 nM | concentration at 24 h ([3]; 3 mg/kg/day, BAF312 3.0 mg/kg/d p.o., Terminal (last day), 24 hr post-dose): 98 ± 8 nM | concentration at 4 h ([3]; 3 mg/kg/day, BAF312 3.0 mg/kg/d p.o., Day 1, 4 hr post-dose): 685 ± 113 nM | concentration at 8 h ([3]; 3 mg/kg/day, BAF312 3.0 mg/kg/d p.o., Day 1, 8 hr post-dose): 584 ± 81 nM | concentration at 24 h ([3]; 3 mg/kg/day, BAF312 3.0 mg/kg/d p.o., Day 1, 24 hr post-dose): 103 ± 9 nM | concentration at 4 h ([3]; 30 mg/kg/day, BAF312 30.0 mg/kg/d p.o., Terminal (last day), 4 hr post-dose): 8330 ± 650 nM | concentration at 8 h ([3]; 30 mg/kg/day, BAF312 30.0 mg/kg/d p.o., Terminal (last day), 8 hr post-dose): 5280 ± 443 nM | concentration at 24 h ([3]; 30 mg/kg/day, BAF312 30.0 mg/kg/d p.o., Terminal (last day), 24 hr post-dose): 942 ± 117 nM | concentration at 4 h ([3]; 30 mg/kg/day, BAF312 30.0 mg/kg/d p.o., Day 1, 4 hr post-dose): 6400 ± 390 nM | concentration at 8 h ([3]; 30 mg/kg/day, BAF312 30.0 mg/kg/d p.o., Day 1, 8 hr post-dose): 4820 ± 617 nM | concentration at 24 h ([3]; 30 mg/kg/day, BAF312 30.0 mg/kg/d p.o., Day 1, 24 hr post-dose): 721 ± 211 nM | Plasma concentration at Tmax (4 hrs) ([3]; BAF312 0.3 mg/kg/d p.o.): 91 ± 7 nM | Terminal plasma concentration at Tmax ([3]; BAF312 0.3 mg/kg/d p.o.): 81 ± 8 nM | Plasma concentration at Tmax (4 hrs) ([3]; BAF312 3.0 mg/kg/d p.o.): 685 ± 113 nM | Terminal plasma concentration at Tmax ([3]; BAF312 3.0 mg/kg/d p.o.): 735 ± 73 nM | Plasma concentration at Tmax (4 hrs) ([3]; BAF312 30 mg/kg/d p.o.): 6395 ± 390 nM | Terminal plasma concentration at Tmax ([3]; BAF312 30 mg/kg/d p.o.): 8328 ± 650 nM | selectivity over S1P4 (human S1P4; B arrestin EC50s): 100 fold | EC50 (human S1P4; B arrestin, 18 hours agonist incubation): 245 nM
SMILES: CCc1cc(/C(C)=N/OCc2ccc(C3CCCCC3)c(C(F)(F)F)c2)ccc1CN1CC(C(=O)O)C1 [BAF312]
effect on heart rate [1]: no statistically significant effect | effect on mean arterial pressure [1]: no statistically significant effect
